Measured values: patent US20120196933A1, “MEXILETINE PRODRUGS” (priority 2010, published 2012)
Where “and” joins values, the source holds several entries; their conditions need not be identical. Equal entries are not always repeated. Where two headings read alike, the source gives them in different places. Marks after values point to notes of the source that are not given here.

How the values were obtained:
[1] = In vitro stability of mexiletine prodrugs under conditions prevailing in the gut; format: physicochemical; conditions: HPLC
Description: To investigate if the prodrugs of the present invention are stable in conditions mimicking the gut, various mexiletine amino acid prodrugs were incubated at 37° C. in simulated gastric and simulated intestinal juice (USP defined composition) for 2 hours. The remaining concentrations of the prodrug were then assayed by HPLC.

[2] = Systemic availability of mexiletine in the dog from mexiletine prodrugs (oral gavage); format: in vivo
Description: Test substances (i.e., mexiletine, and various mexiletine amino acid prodrugs) were administered by oral gavage to groups of two or some cases five dogs. The characteristics of the test animals are set out in Table 6.
Blood samples were taken at various times after administration and submitted to analysis for parent drug using a validated LC-MS-MS assay. Pharmacokinetic parameters derived from the plasma bioanalytical data were determined using Win Nonlin.

[3] = Systemic availability of mexiletine in the cynomolgus monkey from mexiletine prodrugs (oral gavage); format: in vivo; conditions: 1 mg/kg mexiletine free base
Description: Test substances (i.e., mexiletine, and various mexiletine amino acid prodrugs) were administered by oral gavage to groups of two and, in one case, five male cynomolgus monkeys. Blood samples were taken at various times after administration and submitted to analysis for the parent drug using a validated LC-MS-MS assay. Pharmacokinetic parameters derived from the plasma bioanalytical data were determined using Win Nonlin.

[4] = tested on: ADR mouse; assay: Anti-myotonic effects in the ADR mouse (righting response); format: in vivo
Description: The effects of oral administration of either mexiletine glutamic acid amide at 5, 10 or 20 mg/kg or mexiletine 5 mg/kg on the righting response of a group of three adr/adr mice were examined on three separate days. Each assessment involved placing the individual mice on their back no fewer than seven successive occasions in rapid succession and determining the time to successful righting at various time pre and post dosing (−10, +15, +30, +60, +120 & +180 mins).

[5] = tested on: 9-AC induced myotonia in the rat; assay: Anti-myotonic effects in 9-anthracene carboxylic acid (9-AC) treated rats (righting time); format: in vivo; conditions: for Mean ± SEM righting response time: 9-AC 30 mg/kg ip
Description: The use of ip injection of 9-anthracene carboxylic acid is known to induce a myotonic state in rats which can then be used to assess the activity of potential anti-myotonic compounds (Villegas-NavarroA et al (1992) Exp. Toxicol. Pathol. 44 34-39).
Groups of four rats were predosed with 30 mg/kg 9-AC (time 0) and ten minutes later their righting time was assessed repeatedly seven times in rapid succession. They were then dosed po with mexiletine or mexiletine glutamic acid amide at 1, 5, 10, 20 or 40 mg/kg and the righting time reassessed at ˜30, 60, 120 and 180 minutes after 9-AC injection. At each dose level, a group of four control animals, given vehicle alone, was used

[6] = rat
Description: Test substances (i.e., mexiletine & mexiletine glutamic acid amide) were administered by oral gavage to groups of five male Sprague Dawley rats.
Blood samples were taken at various times after administration and submitted to analysis for the prodrug and parent drug using a validated LC-MS-MS assay. Pharmacokinetic parameters derived from the plasma analytical were determined using Win Nonlin.

[7] = In vitro stability of mexiletine prodrugs under conditions prevailing in the gut; format: physicochemical; conditions: 0.1M phosphate buffer pH 7.4, 2 h
[8] = 1 mg/kg mexiletine free base, plasma mexiletine
[9] = oral 5 mg mexiletine free base equivalents/kg, individual animals, Hydrochloride
[10] = oral 5 mg mexiletine free base equivalents/kg, plasma prodrug, individual animals, Hydrochloride
[11] = oral 5 mg mexiletine free base equivalents/kg, plasma prodrug, mean

Cc1cccc(C)c1OCC(C)NC(=O)C(N)CCC(=O)O.Cl (mixture of isomers) [Mexiletine glutamic acid amide, Mexiletine-(S)-Glutamic Acid Amide Hydrochloride]
Simulated gastric fluid (pH 1.1): % remaining after 2 h/37° C. ([1]; simulated gastric fluid pH 1.1, 2 h): 100% | Simulated intestinal fluid (pH 6.8): % remaining after 2 h/37° C. ([1]; simulated intestinal fluid pH 6.8, 2 h): 98.3% | Bioavailability with respect to mexiletine [2]: near complete | AUC of mexiletine [2, 8]: 1020 ng·h/mL | Cmax of mexiletine [2, 8]: 104 ng/mL | T50% Cmax [2, 8]: 7.64 h | F(rel) ([2]; 1 mg/kg mexiletine free base, relative to mexiletine, Hydrochloride, 1 mg/kg): 94.9% | AUC of mexiletine ([3]; plasma mexiletine): 604 ng·h/mL | Cmax of mexiletine ([3]; plasma mexiletine): 90.6 ng/mL | T50% Cmax ([3]; plasma mexiletine): 4.76 h | F(rel) ([3]; relative to mexiletine, Hydrochloride, 1 mg/kg): 87.6% | Effects on righting time ([4]; oral 5 mg/kg): marginal | Mean ± SEM righting response time ([4]; oral 5 mg/kg, +15 mins): 5.70 ± 0.864 s | Mean ± SEM righting response time ([4]; oral 5 mg/kg, +30 mins): 6.53 ± 0.928 s | Mean ± SEM righting response time ([4]; oral 5 mg/kg, +60 mins): 7.13 ± 1.46 s | Mean ± SEM righting response time ([4]; oral 5 mg/kg, +120 mins): 9.22 ± 1.44 s | Mean ± SEM righting response time ([4]; oral 5 mg/kg, +180 mins): 8.38 ± 0.601 s | Mean ± SEM righting response time ([4]; oral 5 mg/kg, −10 mins (pre dosing)): 5.10 ± 0.580 s | Mean ± SEM righting response time ([4]; oral 10 mg/kg, +15 mins): 3.14 ± 0.278 s | Mean ± SEM righting response time ([4]; oral 10 mg/kg, +30 mins, listed as MGAA, Hydrochloride, 10 mg/kg): 2.74+0.37 secs and 2.74 ± 0.373 secs | Mean ± SEM righting response time ([4]; oral 10 mg/kg, +60 mins): 4.41 ± 1.02 s | Mean ± SEM righting response time ([4]; oral 10 mg/kg, +120 mins): 5.45 ± 0.529 s | Mean ± SEM righting response time ([4]; oral 10 mg/kg, +180 mins): 6.92 ± 1.05 s | Mean ± SEM righting response time ([4]; oral 10 mg/kg, −10 mins (pre dosing), listed as MGAA, Hydrochloride, 10 mg/kg): 5.18 ± 0.43 s and 5.18 ± 0.427 s | Mean ± SEM righting response time ([4]; oral 20 mg/kg, +15 mins): 4.23 ± 1.09 s | Mean ± SEM righting response time ([4]; oral 20 mg/kg, +30 mins): 3.06 ± 0.884 s | Mean ± SEM righting response time ([4]; oral 20 mg/kg, +60 mins): 4.05 ± 0.286 s | Mean ± SEM righting response time ([4]; oral 20 mg/kg, +120 mins): 5.90 ± 0.568 s | Mean ± SEM righting response time ([4]; oral 20 mg/kg, +180 mins): 7.90 ± 1.34 s | Mean maximum reduction in righting time ([4]; oral 20 mg/kg, extended over 3 hours): ~60% | Mean ± SEM righting response time ([4]; oral 20 mg/kg, −10 mins (pre dosing)): 7.13 ± 1.84 s | Coefficient of variation of the response ([5]; 10 mg/kg (same molar dose level), time of maximal effect of 9-AC (+30 mins)): 43.3% | Mean ± SEM righting response time ([5]; drug 1 mg/kg po, 9-AC +10 mins (predrug)): 1.98 ± 0.115 s | Mean ± SEM righting response time ([5]; drug 1 mg/kg po, 9-AC +30 mins): 3.52 ± 0.398 s | Mean ± SEM righting response time ([5]; drug 1 mg/kg po, 9-AC +60 mins): 1.86 ± 0.195 s | Mean ± SEM righting response time ([5]; drug 1 mg/kg po, 9-AC +120 mins): 1.07 ± 0.0369 s | Mean ± SEM righting response time ([5]; drug 1 mg/kg po, 9-AC +180 mins): 0.714 ± 0.0427 s | Mean ± SEM righting response time ([5]; drug 5 mg/kg po, 9-AC +10 mins (predrug)): 2.24 ± 0.208 s | Mean ± SEM righting response time ([5]; drug 5 mg/kg po, 9-AC +60 mins): 2.22 ± 0.0828 s | Mean ± SEM righting response time ([5]; drug 5 mg/kg po, 9-AC +120 mins): 1.32 ± 0.194 s | Mean ± SEM righting response time ([5]; drug 5 mg/kg po, 9-AC +180 mins): 1.11 ± 0.220 s | Mean ± SEM righting response time ([5]; drug 10 mg/kg po, 9-AC +10 mins (predrug)): 3.07 ± 0.754 s | Mean ± SEM righting response time ([5]; drug 10 mg/kg po, 9-AC +60 mins): 2.33 ± 0.472 s | Mean ± SEM righting response time ([5]; drug 10 mg/kg po, 9-AC +120 mins): 1.26 ± 0.105 s | Mean ± SEM righting response time ([5]; drug 10 mg/kg po, 9-AC +180 mins): 1.18 ± 0.156 s | Mean ± SEM righting response time ([5]; drug 20 mg/kg po, 9-AC +10 mins (predrug)): 1.90 ± 0.274 s | Mean ± SEM righting response time ([5]; drug 20 mg/kg po, 9-AC +60 mins): 1.51 ± 0.153 s | Mean ± SEM righting response time ([5]; drug 20 mg/kg po, 9-AC +120 mins): 1.18 ± 0.0973 s | Mean ± SEM righting response time ([5]; drug 20 mg/kg po, 9-AC +180 mins): 1.03 ± 0.0709 s | Mean ± SEM righting response time ([5]; drug 40 mg/kg po, 9-AC +10 mins (predrug)): 2.10 ± 0.077 s | Mean ± SEM righting response time ([5]; drug 40 mg/kg po, 9-AC +60 mins): 0.95 ± 0.166 s | Mean ± SEM righting response time ([5]; drug 40 mg/kg po, 9-AC +120 mins): 0.669 ± 0.0558 s | Mean ± SEM righting response time ([5]; drug 40 mg/kg po, 9-AC +180 mins): 0.570 ± 0.0576 s | Overall bioavailability of mexiletine from the prodrug vs mexiletine ([6]; oral): ~2.75 fold | Frel ([6]; oral 5 mg mexiletine free base equivalents/kg, individual animals, vs mexiletine, Hydrochloride): 163^c % and 152^c % and 232% and 303% and 283% | AUC of mexiletine [6, 9]: 29.2* ng · h/mL and 33.3 ng · h/mL and 43.4 ng · h/mL and 40.6 ng · h/mL | Cmax of mexiletine [6, 9]: 8.21 ng/mL and 8.99 ng/mL and 7.97 ng/mL and 10.4 ng/mL and 8.84 ng/mL | T>50% Cmax of mexiletine [6, 9]: 4.1 h (2×) and 2.5 h and 2.4 h and 3.9 h | Tmax of mexiletine [6, 9]: 1 h (3×) and 2 h (2×) | t 1/2 of mexiletine [6, 9]: 1.8* h and 2.6 h and 1.2 h and 2.5 h | t 1/2 of mexiletine, mean ([6]; oral 5 mg mexiletine free base equivalents/kg, ln2/mean k): 1.9^b h | Cmax of mexiletine, mean ([6]; oral 5 mg mexiletine free base equivalents/kg, mean): 8.88 ng/mL | AUC of mexiletine, mean ([6]; oral 5 mg mexiletine free base equivalents/kg, mean (values with extrapolated AUC > 25% omitted)): 39.1 ng·h/mL | Frel, mean ([6]; oral 5 mg mexiletine free base equivalents/kg, mean, vs mexiletine): 273% | Tmax of mexiletine, median ([6]; oral 5 mg mexiletine free base equivalents/kg, median value): 1^a h | T>50% Cmax of mexiletine, median ([6]; oral 5 mg mexiletine free base equivalents/kg, median value, Hydrochloride): 3.9^a h | T>50% Cmax of mexiletine, median ([6]; oral 5 mg mexiletine free base equivalents/kg, median value, listed as MGAA, Hydrochloride): ~4.0 h | AUC of mexiletine glutamic acid amide (prodrug) [6, 10]: 269 ng·h/mL and 266 ng·h/mL and 223 ng·h/mL and 320 ng·h/mL and 413 ng·h/mL | Cmax of mexiletine glutamic acid amide (prodrug) [6, 10]: 127 ng/mL and 186 ng/mL and 101 ng/mL and 180 ng/mL and 138 ng/mL | Tmax of mexiletine glutamic acid amide (prodrug) [6, 10]: 0.25 h and 0.5 h (2×) and 1.0 h (2×) | t 1/2 of mexiletine glutamic acid amide (prodrug) [6, 10]: 1.0 h and 0.9 h (2×) and 1.9 h and 1.3 h | t 1/2 of mexiletine glutamic acid amide (prodrug), mean ([6]; oral 5 mg mexiletine free base equivalents/kg, plasma prodrug, ln2/mean k): 1.0^b h | AUC of mexiletine glutamic acid amide (prodrug), mean [6, 11]: 298 ng·h/mL | Cmax of mexiletine glutamic acid amide (prodrug), mean [6, 11]: 146 ng/mL | Tmax of mexiletine glutamic acid amide (prodrug), median ([6]; oral 5 mg mexiletine free base equivalents/kg, plasma prodrug, median value): 0.5^a h | pH 7.4, 37° C. 0.1M phosphate buffer: % remaining after 2 h/37° C. [7]: 100%
